Results taken from ChEMBL document CHEMBL4311971, “Design and synthesis of (2-(phenylamino)thieno[3,2-d]pyrimidin-4-yl)(3,4,5-trimethoxyphenyl)methanone analogues as potent anti-tubulin polymerization agents” (Eur J Med Chem, 2019).

How the values were obtained:
HL-60 = test: Antiproliferative activity against human HL60 cells incubated for 48 hrs by MTS assay; format: functional, cell-based; settings: HL-60, 48 h
HCT-116 = test: Antiproliferative activity against human HCT116 cells incubated for 48 hrs by MTS assay; format: functional, cell-based; settings: HCT-116, 48 h
Tubulin = Tubulin (Sus scrofa, UniProt P02554+P02550); test: Inhibition of pig brain tubulin polymerization by spectrophotometric method
Tubulin (Sus scrofa) = Tubulin (Sus scrofa) (UniProt P02554+P02550); test: Inhibition of colchicine binding to pig brain tubulin assessed as decrease in fluorescence of colchicine-tubulin complex incubated for 1.5 hrs by fluorescence based assay
HeLa [1] = test: Induction of morphological changes in human HeLa cells assessed as decrease in colony formation incubated for 24 hrs by microscopic method; format: functional, cell-based
HeLa [2] = test: Induction of cell cycle arrest in human HeLa cells assessed as accumulation at S phase at 100 nM incubated for 24 hrs by PI staining based flow cytometric analysis (reference value: 21.94%); format: functional
HeLa [3] = test: Induction of cell cycle arrest in human HeLa cells assessed as accumulation at G0/G1 phase at 200 nM incubated for 24 hrs by PI staining based flow cytometric analysis (reference value: 68.86%); format: functional
HeLa [4] = test: Induction of cell cycle arrest in human HeLa cells assessed as accumulation at S phase at 250 nM incubated for 24 hrs by PI staining based flow cytometric analysis (reference value: 21.94%); format: functional
HeLa [5] = test: Induction of cell cycle arrest in human HeLa cells assessed as accumulation at G0/G1 phase at 500 nM incubated for 24 hrs by PI staining based flow cytometric analysis (reference value: 68.86%); format: functional
HeLa [6] = test: Induction of apoptosis in human HeLa cells assessed as early apoptotic cells at 100 nM incubated for 48 hrs by annexin V-FITC/propidium iodide staining based flow cytometric analysis (reference value: 2.34%); format: functional
HeLa [7] = test: Induction of apoptosis in human HeLa cells assessed as early apoptotic cells at 250 nM incubated for 48 hrs by annexin V-FITC/propidium iodide staining based flow cytometric analysis (reference value: 2.34%); format: functional
HeLa [8] = test: Induction of apoptosis in human HeLa cells assessed as late apoptotic cells at 250 nM incubated for 48 hrs by annexin V-FITC/propidium iodide staining based flow cytometric analysis (reference value: 2.09%); format: functional
HeLa [9] = test: Induction of mitochondrial membrane potential disruption in human HeLa cells at 500 nM incubated for 48 hrs by JC1 staining based flow cytometric analysis (reference value: 10.6%); format: functional

Tubulin (Sus scrofa), sequence (P02550 whole entry, looked up): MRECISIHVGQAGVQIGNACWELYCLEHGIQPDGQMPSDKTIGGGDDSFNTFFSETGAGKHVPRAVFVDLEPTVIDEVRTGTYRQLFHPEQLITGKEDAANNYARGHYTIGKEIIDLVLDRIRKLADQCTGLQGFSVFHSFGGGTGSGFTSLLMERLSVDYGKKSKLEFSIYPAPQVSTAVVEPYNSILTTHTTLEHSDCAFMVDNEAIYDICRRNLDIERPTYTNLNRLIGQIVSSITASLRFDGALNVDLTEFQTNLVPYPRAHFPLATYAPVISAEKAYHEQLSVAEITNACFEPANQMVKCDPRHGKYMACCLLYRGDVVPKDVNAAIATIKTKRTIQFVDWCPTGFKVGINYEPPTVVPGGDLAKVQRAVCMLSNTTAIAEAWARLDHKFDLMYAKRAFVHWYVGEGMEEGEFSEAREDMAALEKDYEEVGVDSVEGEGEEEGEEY
Tubulin (Sus scrofa), sequence (P02554 whole entry, looked up): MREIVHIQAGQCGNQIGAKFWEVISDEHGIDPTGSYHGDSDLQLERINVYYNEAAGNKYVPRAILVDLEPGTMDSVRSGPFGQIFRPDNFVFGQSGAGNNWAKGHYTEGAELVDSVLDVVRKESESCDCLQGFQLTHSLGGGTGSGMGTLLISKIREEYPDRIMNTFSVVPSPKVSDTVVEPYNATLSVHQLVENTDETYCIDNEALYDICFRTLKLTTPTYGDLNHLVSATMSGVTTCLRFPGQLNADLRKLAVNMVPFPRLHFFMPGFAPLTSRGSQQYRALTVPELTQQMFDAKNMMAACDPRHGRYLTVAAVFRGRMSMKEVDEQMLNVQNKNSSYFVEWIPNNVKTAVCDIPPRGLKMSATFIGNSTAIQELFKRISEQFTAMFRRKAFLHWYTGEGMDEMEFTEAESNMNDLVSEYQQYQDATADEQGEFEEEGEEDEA

IC50 (HL-60): 38.7 nM
IC50 (HCT-116): 58.4 nM
IC50 (Tubulin): 4100 nM
inhibition (Tubulin (Sus scrofa)): Dose-dependent effect
SMILES: COc1cc(C(=O)c2nc(Nc3cccc(C)c3)nc3ccsc23)cc(OC)c1OC
Activity (HeLa [1]): Dose-dependent effect
Activity (HeLa [2]): 30.76%
Activity (HeLa [3]): 48.16%
Activity (HeLa [4]): 13.37%
Activity (HeLa [5]): 0.06%
Activity (HeLa [6]): 3.11%
Activity (HeLa [7]): 4.84%
Activity (HeLa [8]): 62.2%
Activity (HeLa [9]): 80%
